Structures are written as SMILES. Where a SMILES comes first, the peptide text is derived from it. [ ]: non-standard residue; d: D form. The star is where a group is joined. NHCH2CH2OH = OCCN*; For = O=C*

A short description of series [1]: H+/Na+ transport assay of bead-derived peptides (one-point).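 Also: relative to parent gramicidin A activity set to 1.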 The class given is biochemical. Also noted: key: relative activity; mean of two control wells = 1.00. The settings on record: bead-derived peptide solution, EYPC/EYPG LUVs. The procedure:
(§1) Each type of assay must be simplified and miniaturized to assess the activities of the library peptides in a 96-well format for the high-throughput screening.
H+/Na+ transport assay of bead-derived peptides.1,2,3 Trisodium 8-hydroxypyrene-1,3,6-trisulfonate
mini-extruder apparatus (Avanti Polar Lipids).
28.9 µmol) in CHCl3 (225 µL) and egg yolk phosphatidylglycerol (1.20 mg, 1.56 µmol) in CHCl3 (60.0 µL)
The thin film was hydrated and
1.0 mM pyranine) by sonication.
A suspension of the LUVs was immediately
used for the H+/Na+ transport assay.
The diluted solution of peptide
flat-bottom 96-well plate (655086, Greiner bio-one).
was vortexed at room temperature for 30 min.
(5/95, 3.0 µL) and the LUV suspension were mixed in each plate to determine 100% lysis. The untreated
LUV suspension was used to determine 0% lysis.
normalized against 100% lysis by Triton X-100 (Imax) and 0% lysis (I0) as following, where Ix is the
fluorescence intensity (Supplementary Equation 2).
I = 100 × (Ix – I0) / (Imax – I0) (2)
The mean value of the two control wells was set to 1.00. […]

For series [2], the system named is P388 mouse leukemia cells. The settings on record: 92 h. The text has this: Each type of assay must be simplified and miniaturized to assess the activities of the library peptides in a 96-well format for the high-throughput screening. […]
Mammalian cytotoxicity assay of bead-derived peptides . P388 cells were obtained from Institute of
Development Aging and Cancer (Tohoku University). The cells were maintained with growth medium
[RPMI1640 with phenol red ( Fujifilm Wako Pure Chemical) supplemented with 10% heat -inactivated fetal
bovine serum, pe nicillin G (100 units/mL), and streptomycin (100 µg/mL)] under atmosphere of 5% CO 2 at
The collected cells were resuspended into
the growth medium at 2 × 10^4 cells/mL. The stock solutions of the peptide library were 250-fold diluted
with the growth medium. Aliquots of the medium (100 µL) containing peptides and the latter medium
containing P388 cells (100 µL) were mixed in a 96-well cell culture plate (TR5003, TrueLine). The final
concentration of P388 cells was 1 × 10^4 cells/mL. After incubation under atmosphere of 5% CO2 at 37 °C
for 92 h, the numbers of viable cells were determined by
2-(4-iodophenyl)-3-(4-nitrophenyl)-5-(2,4-disulfophenyl)-2H-tetrazolium, monosodium salt (WST-1) assay.
A solution of 1-methoxy-5-methylphenazinium methyl sulfate (1-methoxy PMS) and WST-1 in the growth
medium (1-methoxy PMS 0.70 mg/mL in Milli-Q/WST-1 3.6 mg/mL in pH 7.4 HEPES buffer = 1/9) was
added to each well of the plate (10.0 µL/well). The plate was incubated for 4 h under atmosphere of 5% CO2
at 37 °C. The absorbance of each well at 415 nm was measured using a Benchmark microplate reader
(Bio-Rad). The cytotoxicities were evaluated as cell viability (%). […]

Series [3] has as its system Streptococcus pyogenes SSI-9. In words: Antibacterial activity assay of bead-derived peptides (three concentrations). More on the design: key: +++: inhibition by the 640-fold diluted peptide solution; ++: inhibition by the 160-fold diluted solution; +: inhibition by the 40-fold diluted solution; -: no inhibition. It is filed as cell-based. The settings on record: S. pyogenes, bead-derived peptide solution, three concentrations. Here is the method: as §1
Next, the peptides in groups A and B were subjected to the antibacterial assay and structural determination. Three peptide concentrations were applied to evaluate the growth inhibition of S. pyogenes and determine the antibacterial activity. […] Finally, the structures of the peptides were determined. […]
Antibacterial activity assay of bead-derived peptides. The stock solution of the peptide library was 4- and […]
16-fold diluted with DMSO. The non-diluted stock solution, 4-fold diluted solution, and 16-fold diluted […]
solution were transferred to the 96-well round-bottom plate (3367, Corning, 1.0 µL/well). To the solution of […]
peptide in each well was added a suspension of Streptococcus pyogenes SSI-9 strain in cation adjusted […]
Mueller Hinton Broth [40.0 µL, 2 × 10^5 colony forming units (CFU), 21 g/L Mueller Hinton Broth (Difco), 50 […]
mg/L Ca2+ (adjusted with CaCl2•2H2O), and 25 mg/L Mg2+ (adjusted with MgCl2•6H2O)] supplemented with […]
5% laked horse blood (Nippon Biotest Laboratories). The plate was incubated at 37 °C for 18 h, and the precipitation of the grown cells was examined. […]

For `CC(C)C[C@@H](NC(=O)[C@H](C)NC(=O)[C@H](NC(=O)[C@H](C)NC(=O)CNC(=O)[C@@H](NC=O)C(C)C)C(C)C)C(=O)N[C@H](C(=O)N[C@@H](C(=O)N[C@@H](Cc1c[nH]c2ccccc12)C(=O)N[C@H](CC(C)C)C(=O)N[C@@H](Cc1c[nH]c2ccccc12)C(=O)N[C@@H](C(=O)N[C@@H](Cc1c[nH]c2ccccc12)C(=O)N[C@H](CC(C)C)C(=O)N[C@@H](Cc1c[nH]c2ccccc12)C(=O)NCCO)C(C)C)C(C)C)C(C)C` [compound 10261] (For-VGA[dV]A[dL]V[dV]W[dL]W[dV]W[dL]W-NHCH2CH2OH), the “H+/Na+ transport activity normalized against the value of 1 (1.00)” value (shortened to “H+/Na+ transport activity normalized”) in series [1] was found to be 1.05. The cell viability/% in series [2] amounted to 46.3%. For the same molecule, in series [3], the antibacterial activity entry is reported as “+”.

For `CC(C)C[C@@H](NC(=O)[C@H](C)NC(=O)[C@H](NC(=O)[C@H](C)NC(=O)CNC(=O)[C@@H](NC=O)C(C)C)C(C)C)C(=O)N[C@H](C(=O)N[C@H](CC(C)C)C(=O)N[C@@H](Cc1c[nH]c2ccccc12)C(=O)N[C@H](CC(C)C)C(=O)N[C@@H](Cc1c[nH]c2ccccc12)C(=O)N[C@@H](C(=O)N[C@@H](Cc1c[nH]c2ccccc12)C(=O)N[C@@H](C(=O)N[C@@H](Cc1c[nH]c2ccccc12)C(=O)NCCO)[C@H](C)O)C(C)C)C(C)C` [compound 6943] (For-VGA[dV]A[dL]V[dL]W[dL]W[dV]W[dT]W-NHCH2CH2OH), the “H+/Na+ transport activity normalized” value in series [1] is reported as 1.02. In addition, the cell viability/% in series [2] is listed as 100.0%. The antibacterial activity result in series [3] was “-”.

Turning to `CNC(=O)C[C@@H](NC(=O)[C@@H](NC(=O)[C@H](NC(=O)[C@H](C)NC(=O)[C@H](NC(=O)[C@H](C)NC(=O)CNC(=O)[C@@H](NC=O)C(C)C)C(C)C)C(C)C)C(C)C)C(=O)N[C@@H](Cc1c[nH]c2ccccc12)C(=O)N[C@H](CC(C)C)C(=O)N[C@@H](Cc1c[nH]c2ccccc12)C(=O)N[C@H](CC(C)C)C(=O)N[C@@H](Cc1c[nH]c2ccccc12)C(=O)N[C@@H](C(=O)N[C@@H](Cc1c[nH]c2ccccc12)C(=O)NCCO)C(C)C` [compound 5771] (For-VGA[dV]A[dV]V[dD](NHMe)W[dL]W[dL]W[dV]W-NHCH2CH2OH), in series [1], the “H+/Na+ transport activity normalized” value stood at 1.46. The cell viability/% in series [2] was found to be 79.3%. In addition, the antibacterial activity entry in series [3] is “-”.

`CNC(=O)C[C@@H](NC(=O)[C@H](Cc1c[nH]c2ccccc12)NC(=O)[C@@H](CC(C)C)NC(=O)[C@H](Cc1c[nH]c2ccccc12)NC(=O)[C@H](NC(=O)[C@H](Cc1c[nH]c2ccccc12)NC(=O)[C@H](NC(=O)[C@@H](NC(=O)[C@@H](CC(C)C)NC(=O)[C@H](C)NC(=O)[C@H](NC(=O)[C@H](C)NC(=O)CNC(=O)[C@@H](NC=O)C(C)C)C(C)C)C(C)C)C(C)C)C(C)C)C(=O)N[C@@H](Cc1c[nH]c2ccccc12)C(=O)NCCO` [compound 6329] (For-VGA[dV]A[dL]V[dV]W[dV]W[dL]W[dD](NHMe)W-NHCH2CH2OH): the “H+/Na+ transport activity normalized” value in series [1] is reported as 1.03. Further, the cell viability/% in series [2] is recorded as 43.5%. The antibacterial activity result in series [3] is given as “-”.

With `CC(C)C[C@@H](NC(=O)[C@H](Cc1c[nH]c2ccccc12)NC(=O)[C@@H](CC(C)C)NC(=O)[C@@H](NC(=O)[C@H](NC(=O)[C@H](C)NC(=O)[C@H](NC(=O)[C@H](C)NC(=O)CNC(=O)[C@@H](NC=O)C(C)C)[C@H](C)O)C(C)C)C(C)C)C(=O)N[C@@H](Cc1c[nH]c2ccccc12)C(=O)N[C@@H](C(=O)N[C@@H](Cc1c[nH]c2ccccc12)C(=O)N[C@@H](C(=O)N[C@@H](Cc1c[nH]c2ccccc12)C(=O)NCCO)C(C)C)C(C)C` [compound 11772] (For-VGA[dT]A[dV]V[dL]W[dL]W[dV]W[dV]W-NHCH2CH2OH), in series [1], the “H+/Na+ transport activity normalized” value came to 1.04. Also, in series [2], the cell viability/% is listed as 100.0%. The antibacterial activity entry in series [3] is “-”.

The values are drawn from paper PMC7531004, “Discovery of gramicidin A analogues with altered activities by multidimensional screening of a one-bead-one-compound library” (Nature Communications, 2020).
